Assay results published in patent US11236401B2, “Sensors for detection and quantification of microbiological protein secretion” (SenseUp GmbH, priority 2015, dated 2022).
Where a SMILES comes first, the peptide text is derived from it. Bridges are numbered along the chain shown (N, C = ends). [ ]: non-standard residue; d: D form. The star is where a group is joined. Ileψ(thiazoline)Cys = CC[C@H](C)[C@H](N)C1=N[C@H](C(=O)*)CS1; dOrn = NCCC[C@@H](N)C(=O)O

Experiments:
[1] = tested on: strain ATCC 13032 pSen0706; experiment: In vivo EYFP fluorescence of sensor strain ATCC 13032 pSen0706 (cg0706 promoter) as a function of antibiotic concentration, BioLector; assay type: cell-based, Corynebacterium glutamicum; conditions: ATCC 13032 pSen0706 in CGXII medium, 24 hours; antibiotic added after 4 hours; Vancomycine 0; 1.25; 2.5; 5; 10; 15; 20 μg/ml; Bacitracin 0; 1; 4 μg/ml; excitation 485 nm, emission 520/10 nm; FIGS. 1 and 2
Description: (§1) c) Detection of the fluorescence as a function of the concentration of a compound that is characterized by an antibiotic activity due to its property to damage the membrane of a bacterial cell.
The examination of in vivo fluorescence emission was carried out by culturing the cells of strain ATCC 13032 pSen0706 with 0.8 ml CGXII medium (Keilhauer et al, 1993, J. Bacteriol. 175: 5595-603) in microtiter dimension (Flowerplate® MTP-48-B) in the BioLector system (m2p-labs GmbH, 52499 Baesweiler, Germany). This system allows for the parallel cultivation of 48 cultures and regular and automated optical measurements of the culture growth as well as the fluorescence. 10 cultures with cells of strain ATCC 13032 pSen0706 were inoculated to an OD of 0.1 and cultured for 24 hours. After 4 hours the antibiotic substances Vancomycine or Bacitracine were added to the cultures. Vancomycine-concentrations were adjusted to 0; 1.25; 2.5; 5; 10; 15; 20 μg/ml and Bacitracin-concentrations were adjusted to 0; 1; 4 μg/ml. Every 10 minutes the cell densities of cultures and the fluorescence were measured. The fluorescence was excited with light of wavelength 485 nm, the fluorescence emission measurement of EYFP was carried out at 520/10 nm. The fluorescence of the cultures has been digitally recorded by means of the BioLection V.2.4.1.0 software.

[2] = tested on: strain ATCC 13032 pSen1325; experiment: In vivo EYFP fluorescence of sensor strain ATCC 13032 pSen1325 (cg1325 promoter) as a function of antibiotic concentration, BioLector; assay type: cell-based, Corynebacterium glutamicum; conditions: ATCC 13032 pSen1325 in CGXII medium, 24 hours; antibiotic added after 4 hours; Vancomycine 0; 1.25; 2.5; 5; 10; 15; 20 μg/ml; Bacitracin 0; 0.25; 0.5; 1; 2; 4 μg/ml; excitation 485 nm, emission 520/10 nm
Description: as §1
The examination of in vivo fluorescence emission was carried out by culturing the cells of strain ATCC 13032 pSen1325 with 0.8 ml CGXII medium (Keilhauer et al, 1993, J. Bacteriol. 175: 5595-603) in microtiter dimension (Flowerplate® MTP-48-B) in the BioLector system (m2p-labs GmbH, 52499 Baesweiler, Germany). 13 cultures with cells of strain ATCC 13032 pSen1325 were inoculated to an OD of 0.1 and cultured for 24 hours. After 4 hours the antibiotic substances Vancomycine or Bacitracine were added to the cultures. Vancomycine-concentrations were adjusted to 0; 1.25; 2.5; 5; 10; 15; 20 μg/ml and Bacitracin-concentrations were adjusted to 0; 0.25; 0.5; 1; 2; 4 μg/ml. Every 10 minutes the cell densities of cultures and the fluorescence were measured. The fluorescence was excited with light of wavelength 485 nm, the fluorescence emission measurement of EYFP was carried out at 520/10 nm. The fluorescence of the cultures has been digitally recorded by means of the BioLection V.2.4.1.0 software.

CN[C@H](CC(C)C)C(=O)N[C@H]1C(=O)N[C@@H](CC(N)=O)C(=O)N[C@H]2C(=O)N[C@H]3C(=O)N[C@H](C(=O)N[C@H](C(=O)O)c4cc(O)cc(O)c4-c4cc3ccc4O)[C@H](O)c3ccc(c(Cl)c3)Oc3cc2cc(c3O[C@@H]2O[C@H](CO)[C@@H](O)[C@H](O)[C@H]2O[C@H]2C[C@](C)(N)[C@H](O)[C@H](C)O2)Oc2ccc(cc2Cl)[C@H]1O [Vancomycine]
fluorescence emission of cultures as a function of the concentration of the compound [1]: fluorescence emissions of cultures with different Vancomycine or Bacitracine concentrations also differs
fluorescence emission of cultures as a function of the concentration of the compound [2]: fluorescence emissions of cultures with different Vancomycine or Bacitracine concentrations also differs

CC[C@H](C)[C@H](N)C1=N[C@H](C(=O)N[C@@H](CC(C)C)C(=O)N[C@H](CCC(=O)O)C(=O)N[C@H](C(=O)N[C@H]2CCCCNC(=O)[C@H](CC(N)=O)NC(=O)[C@@H](CC(=O)O)NC(=O)[C@H](Cc3cnc[nH]3)NC(=O)[C@@H](Cc3ccccc3)NC(=O)[C@H]([C@@H](C)CC)NC(=O)[C@@H](CCCN)NC2=O)[C@@H](C)CC)CS1 [Bacitracine] ({Ileψ(thiazoline)Cys}-L[dE]IK[dOrn]I[dF]H[dD]N; lactam 4-C)
fluorescence emission of cultures as a function of the concentration of the compound [1]: fluorescence emissions of cultures with different Vancomycine or Bacitracine concentrations also differs
fluorescence emission of cultures as a function of the concentration of the compound [2]: fluorescence emissions of cultures with different Vancomycine or Bacitracine concentrations also differs
